Among the data in patent US9661853B2, “Molecules having pesticidal utility, and intermediates, compositions, and processes, related thereto” (Dow AgroSciences LLC, priority 2015, dated 2017) are mortality values, retold here.

In assay [1] the test system is Cabbage Looper (Trichoplusia ni, TRIPNI). Description: Bioassay on Cabbage Looper (CL), 128-well diet tray assay. The format is in vivo. Conditions: 168 h, 50 μg/cm^2 on artificial diet, second instar larvae, 25° C., five to seven days, average of eight wells, read-out: CL % Control (or Mortality) rating. The method, then: (§1) Bioassays on Beet Armyworm (Spodoptera exigua, LAPHEG) (“BAW”) and Cabbage Looper (Trichoplusia ni, TRIPNI) (“CL”)
(§2) Certain molecules disclosed in this document were tested against BAW and CL using procedures described in the following examples. In the reporting of the results, the “BAW & CL Rating Table” was used (See Table Section).
Bioassays on CL were conducted using a 128-well diet tray assay. One to five second instar CL larvae were placed in each well (3 mL) of the diet tray that had been previously filled with 1 mL of artificial diet to which 50 μg/cm^2 of the test molecule (dissolved in 50 μL of 90:10 acetone-water mixture) had been applied (to each of eight wells) and then allowed to dry. Trays were covered with a clear self-adhesive cover, vented to allow gas exchange, and held at 25° C., 14:10 light-dark for five to seven days. Percent mortality was recorded for the larvae in each well; activity in the eight wells was then averaged. The results are indicated in the table entitled “Table ABC: Biological Results” (See Table Section).

Assay [2] relates to Beet Armyworm (Spodoptera exigua, LAPHEG). Description: Bioassay on Beet Armyworm (BAW), 128-well diet tray assay. The format is in vivo. Conditions: 168 h, 50 μg/cm^2 on artificial diet, second instar larvae, 25° C., five to seven days, average of eight wells, read-out: BAW % Control (or Mortality) rating. The method, then:
as §1, §2
Bioassays on BAW were conducted using a 128-well diet tray assay. One to five second instar BAW larvae were placed in each well (3 mL) of the diet tray that had been previously filled with 1 mL of artificial diet to which 50 μg/cm^2 of the test molecule (dissolved in 50 μL of 90:10 acetone-water mixture) had been applied (to each of eight wells) and then allowed to dry. Trays were covered with a clear self-adhesive cover, vented to allow gas exchange, and held at 25° C., 14:10 light-dark for five to seven days. Percent mortality was recorded for the larvae in each well; activity in the eight wells was then averaged. The results are indicated in the table entitled “Table ABC: Biological Results” (See Table Section).

With `COCc1ccc(C)cc1N1C(=O)CS/C1=N\C(=O)Nc1ccc(CNc2ncn(-c3ccc(OC(F)(F)F)cc3)n2)cn1` [F13, (Z)-1-(3-(2-(Methoxymethyl)-5-methylphenyl)-4-oxothiazolidin-2-ylidene)-3-(5-(((1-(4-(trifluoromethoxy)phenyl)-1H-1,2,4-triazol-3-yl)amino)methyl)pyridin-2-yl)urea], the mortality at 50 µg/cm2 in assay [1] and in assay [2] was 50 to 100% each time.

For `Cc1ccc(C(C)C)c(N2C(=O)CS/C2=N\C(=O)Nc2ccc(CNc3ncn(-c4ccc(OC(F)(F)F)cc4)n3)c(Cl)c2)c1` [F7, (Z)-1-(3-Chloro-4-(((1-(4-(trifluoromethoxy)phenyl)-1H-1,2,4-triazol-3-yl)amino)methyl)phenyl)-3-(3-(2-isopropyl-5-methylphenyl)-4-oxothiazolidin-2-ylidene)urea], the mortality at 50 µg/cm2 in assay [1] and in assay [2] was 50 to 100% throughout.

For `CCCc1ccc(C)cc1N1C(=O)CS/C1=N\C(=O)Nc1ccc(CN(C)c2ncn(-c3ccc(OC(F)(F)F)cc3)n2)cc1` [F23, (Z)-1-(4-((Methyl(1-(4-(trifluoromethoxy)phenyl)-1H-1,2,4-triazol-3-yl)amino)methyl)phenyl)-3-(3-(5-methyl-2-propylphenyl)-4-oxothiazolidin-2-ylidene)urea], the mortality at 50 µg/cm2 in assay [1] and in assay [2] was 50 to 100% in each case.

On to `COCc1ccc(C)cc1N1C(=O)CS/C1=N\C(=O)Nc1ccc(CN(C)c2ncn(-c3ccc(OC(F)(F)F)cc3)n2)cc1F` [F17, (Z)-1-(2-Fluoro-4-((methyl(1-(4-(trifluoromethoxy)phenyl)-1H-1,2,4-triazol-3-yl)amino)methyl)phenyl)-3-(3-(2-(methoxymethyl)-5-methylphenyl)-4-oxothiazolidin-2-ylidene)urea], for which the mortality at 50 µg/cm2 in assay [1] and in assay [2] was 50 to 100% each time.

`COCc1ccc(C)cc1N1C(=O)CS/C1=N\C(=O)Nc1ccc(NCc2ncn(-c3ccc(OC(F)(F)F)cc3)n2)cc1` [F30, (Z)-1-(3-(2-(Methoxymethyl)-5-methylphenyl)-4-oxothiazolidin-2-ylidene)-3-(4-(((1-(4-(trifluoromethoxy)phenyl)-1H-1,2,4-triazol-3-yl)methyl)amino)phenyl)urea]: the mortality at 50 µg/cm2 in assay [1] and in assay [2] was 50 to 100% each time.

On to `CCCc1ccc(C)cc1N1C(=O)CS/C1=N\C(=O)Nc1ccc(NCc2ncn(-c3ccc(OC(F)(F)F)cc3)n2)cc1` [F29, (Z)-1-(3-(5-Methyl-2-propylphenyl)-4-oxothiazolidin-2-ylidene)-3-(4-(((1-(4-(trifluoromethoxy)phenyl)-1H-1,2,4-triazol-3-yl)methyl)amino)phenyl)urea], for which the mortality at 50 µg/cm2 in assay [1] and in assay [2] was 50 to 100% in each case.

As for `COC(C)c1ccc(C)cc1N1C(=O)CS/C1=N\C(=O)Nc1ccc(CNc2ncn(-c3ccc(OC(F)(F)F)cc3)n2)cc1` (centres unmarked) [F1, (Z)-1-(3-(2-(1-Methoxyethyl)-5-methylphenyl)-4-oxothiazolidin-2-ylidene)-3-(4-(((1-(4-(trifluoromethoxy)phenyl)-1H-1,2,4-triazol-3-yl)amino)methyl)phenyl)urea], the mortality at 50 µg/cm2 in assay [1] and in assay [2] was 50 to 100% each time.

For the compound `Cc1ccc(C(C)C)c(N2C(=O)CS/C2=N\C(=O)Nc2ccc(CN(C)c3ncn(-c4ccc(OC(F)(F)F)cc4)n3)cn2)c1` [F16, (Z)-1-(3-(2-Isopropyl-5-methylphenyl)-4-oxothiazolidin-2-ylidene)-3-(5-((methyl(1-(4-(trifluoromethoxy)phenyl)-1H-1,2,4-triazol-3-yl)amino)methyl)pyridin-2-yl)urea], the mortality at 50 µg/cm2 in assay [1] and in assay [2] was 50 to 100% throughout.

`Cc1ccc(C(C)C)c(N2C(=O)CS/C2=N\C(=O)Nc2ccc(NCc3ncn(-c4ccc(OC(F)(F)F)cc4)n3)c(Cl)c2)c1` [F43, (Z)-1-(3-Chloro-4-(((1-(4-(trifluoromethoxy)phenyl)-1H-1,2,4-triazol-3-yl)methyl)amino)phenyl)-3-(3-(2-isopropyl-5-methylphenyl)-4-oxothiazolidin-2-ylidene)urea]: the mortality at 50 µg/cm2 in assay [1] and in assay [2] was 50 to 100% each time.

With `CCCc1ccc(C)cc1N1C(=O)CS/C1=N\C(=O)Nc1ccc(CNc2ncn(-c3ccc(OC(F)(F)F)cc3)n2)c(Cl)c1` [F8, (Z)-1-(3-Chloro-4-(((1-(4-(trifluoromethoxy)phenyl)-1H-1,2,4-triazol-3-yl)amino)methyl)phenyl)-3-(3-(5-methyl-2-propylphenyl)-4-oxothiazolidin-2-ylidene)urea], the mortality at 50 µg/cm2 in assay [1] and in assay [2] was 50 to 100% in each case.

Turning to `CCCc1ccc(C)cc1N1C(=O)CS/C1=N\C(=O)Nc1ccc(NCc2ncn(-c3ccc(OC(F)(F)F)cc3)n2)cc1F` [F32, (Z)-1-(2-Fluoro-4-(((1-(4-(trifluoromethoxy)phenyl)-1H-1,2,4-triazol-3-yl)methyl)amino)phenyl)-3-(3-(5-methyl-2-propylphenyl)-4-oxothiazolidin-2-ylidene)urea], the mortality at 50 µg/cm2 in assay [1] and in assay [2] was 50 to 100% in each case.

With `CCCc1ccc(C)cc1N1C(=O)CS/C1=N\C(=O)Nc1ccc(CNc2ncn(-c3ccc(OC(F)(F)F)cc3)n2)cn1` [F12, (Z)-1-(3-(5-Methyl-2-propylphenyl)-4-oxothiazolidin-2-ylidene)-3-(5-(((1-(4-(trifluoromethoxy)phenyl)-1H-1,2,4-triazol-3-yl)amino)methyl)pyridin-2-yl)urea], the mortality at 50 µg/cm2 in assay [1] and in assay [2] was 50 to 100% in each case.

On to `COCc1ccc(C)cc1N1C(=O)CS/C1=N\C(=O)Nc1ccc(CNc2ncn(-c3ccc(OC(F)(F)F)cc3)n2)cc1` [F4, (Z)-1-(3-(2-(Methoxymethyl)-5-methylphenyl)-4-oxothiazolidin-2-ylidene)-3-(4-(((1-(4-(trifluoromethoxy)phenyl)-1H-1,2,4-triazol-3-yl)amino)methyl)phenyl)urea], for which the mortality at 50 µg/cm2 in assay [1] and in assay [2] was 50 to 100% each time.

For the compound `Cc1ccc(C(C)C)c(N2C(=O)CS/C2=N\C(=O)Nc2ccc(NC(=O)c3ncn(-c4ccc(OC(F)(F)F)cc4)n3)cc2)c1` [F26, (Z)—N-(4-(3-(3-(2-Isopropyl-5-methylphenyl)-4-oxothiazolidin-2-ylidene)ureido)phenyl)-1-(4-(trifluoromethoxy)phenyl)-1H-1,2,4-triazole-3-carboxamide], the mortality at 50 µg/cm2 in assay [1] and in assay [2] was 50 to 100% throughout.

Consider `COCc1ccc(C)cc1N1C(=O)CS/C1=N\C(=O)Nc1ccc(NCc2ncn(-c3ccc(OC(F)(F)F)cc3)n2)cc1F` [F33, (Z)-1-(2-Fluoro-4-(((1-(4-(trifluoromethoxy)phenyl)-1H-1,2,4-triazol-3-yl)methyl)amino)phenyl)-3-(3-(2-(methoxymethyl)-5-methylphenyl)-4-oxothiazolidin-2-ylidene)urea], for which the mortality at 50 µg/cm2 in assay [1] and in assay [2] was 50 to 100% in each case.

With `Cc1ccc(C(C)C)c(N2C(=O)CS/C2=N\C(=O)Nc2ccc(NCc3ncn(-c4ccc(OC(F)(F)F)cc4)n3)c(F)c2)c1` [F34, (Z)-1-(3-Fluoro-4-(((1-(4-(trifluoromethoxy)phenyl)-1H-1,2,4-triazol-3-yl)methyl)amino)phenyl)-3-(3-(2-isopropyl-5-methylphenyl)-4-oxothiazolidin-2-ylidene)urea], the mortality at 50 µg/cm2 in assay [1] and in assay [2] was 50 to 100% in each case.

For `Cc1ccc(C(C)C)c(N2C(=O)CS/C2=N\C(=O)Nc2ccc(CN(C)c3ncn(-c4ccc(OC(F)(F)F)cc4)n3)c(Cl)c2)c1` [F20, (Z)-1-(3-Chloro-4-((methyl(1-(4-(trifluoromethoxy)phenyl)-1H-1,2,4-triazol-3-yl)amino)methyl)phenyl)-3-(3-(2-isopropyl-5-methylphenyl)-4-oxothiazolidin-2-ylidene)urea], the mortality at 50 µg/cm2 lay in the range of 50 to 100% in assay [1] and 0 to 50% in assay [2].

As for `Cc1ccc(C(C)C)c(N2C(=O)CS/C2=N\C(=O)Nc2ccc(NCc3ncn(-c4ccc(OC(F)(F)F)cc4)n3)cc2Cl)c1` [F40, (Z)-1-(2-Chloro-4-(((1-(4-(trifluoromethoxy)phenyl)-1H-1,2,4-triazol-3-yl)methyl)amino)phenyl)-3-(3-(2-isopropyl-5-methylphenyl)-4-oxothiazolidin-2-ylidene)urea], the mortality at 50 µg/cm2 in assay [1] and in assay [2] was 50 to 100% in each case.

For `COc1cc(NC(=O)/N=C2\SCC(=O)N2c2cc(C)ccc2C(C)C)ccc1NCc1ncn(-c2ccc(OC(F)(F)F)cc2)n1` [F37, (Z)-1-(3-(2-Isopropyl-5-methylphenyl)-4-oxothiazolidin-2-ylidene)-3-(3-methoxy-4-(((1-(4-(trifluoromethoxy)phenyl)-1H-1,2,4-triazol-3-yl)methyl)amino)phenyl)urea], the mortality at 50 µg/cm2 in assay [1] and in assay [2] was 50 to 100% in each case.

As a reminder, the mortality is the percentage killed.
